Test system: rat red blood cells
Test: Hemolytic assay
Assay type: cell-based
Settings: 1 μM melittin, 37° C., 1 hour, pH 7.4
Experimental: Hemolytic assay: Rat blood was used to compare hemolytic effects of free melittin, SSNS, and DSNS using DI water as positive control and PBS as negative control. Briefly, rat red blood cells were washed using 210 mM sodium chloride and dispersed in phosphate buffer saline (pH 7.4), To the SSNS, DSNS and free melittin corresponding to melittin concentration of 0.1 to 10 μM, the same amount of red blood cells was added and incubated at 37° C. for 1 hour. Following, each sample was centrifuged at 300 rcf for 2 min. and the optical density of supernatant was measured (λ=405 nm.) for the quantification of lysed cell amount. The results are shown graphically in FIG. 5 and in the corresponding photographs of FIG. 6.

Q: How did the “red blood cell lysis” value turn out when `CC[C@H](C)[C@H](NC(=O)CN)C(=O)NCC(=O)N[C@@H](C)C(=O)N[C@H](C(=O)N[C@@H](CC(C)C)C(=O)N[C@@H](CCCCN)C(=O)N[C@H](C(=O)N[C@@H](CC(C)C)C(=O)N[C@H](C(=O)N[C@H](C(=O)NCC(=O)N[C@@H](CC(C)C)C(=O)N1CCC[C@H]1C(=O)N[C@@H](C)C(=O)N[C@@H](CC(C)C)C(=O)N[C@H](C(=O)N[C@@H](CO)C(=O)N[C@@H](Cc1c[nH]c2ccccc12)C(=O)N[C@H](C(=O)N[C@@H](CCCCN)C(=O)N[C@@H](CCCNC(=N)N)C(=O)N[C@@H](CCCCN)C(=O)N[C@@H](CCCNC(=N)N)C(=O)N[C@@H](CCC(N)=O)C(=O)N[C@@H](CCC(N)=O)C(N)=O)[C@@H](C)CC)[C@@H](C)CC)[C@@H](C)O)[C@@H](C)O)C(C)C)C(C)C` [free melittin, melittin] was run?
A: The value was “completely lysed the cells”.

Reference: US20130244953A1, “DUAL SECURED THERAPEUTIC PEPTIDE DELIVERY SYSTEM” (priority 2011, published 2013)
